In patent US6767890B1, “Peptides having anti-cancer and anti-inflammatory activity” (priority 1998, dated 2004):

Molecular target: Ca++/Calmodulin Dep. PK II
Assay: Ca++/Calmodulin Dep. PK II enzyme assay
Type: biochemical, rat
Conditions: historical value; read-out: ^1IC, (IC50 of reference compound)
Experimental: The peptide was further screened in vitro in a variety of enzyme and biochemical assays. Methods employed were adapted from the scientific literature to maximize reliability and reproducibility. The primary literature reference for each assay is listed in Table 11 opposite the results for each assay.
Results presented in Table 10, “Results,” are the average of duplicate determinations, unless otherwise noted.
Reference compounds were tested concurrently at 5 concentrations as an integral part of each assay to ensure the validity of the results obtained.
Enzyme assays were performed under conditions described in Table 8, “Experimental Conditions.”. The commercial suppliers and catalog numbers of substrates employed in this study are given in Table 7, “Material Sources.” The name, commercial source, and catalog numbers of concurrent reference compounds (controls) employed in this study are given in Table 9, “Reference Compound Data.” The reaction catalyzed by each enzyme is listed in Table 8, “Experimental Conditions.”
Biochemical assay results are presented in Table 10, as the percent inhibition of specific binding or activity, and unless noted are the average of duplicate tubes tested at each concentration.

## CN1CCN(CCCN2c3ccccc3Sc3ccc(C(F)(F)F)cc32)CC1 [Trifluoperazine, reference compound]
  IC50: 27 µM
